Patent US9492471B2, “Methods of treating a disease or disorder associated with Bruton'S Tyrosine Kinase” (Celgene Avilomics Research, Inc., priority 2013, dated 2016)
Read-outs that look alike come from different tables or passages of the source.

Assays:
Experiment in all cases: HotSpot kinase profiling
Assay type in all cases: biochemical
PKCtheta = target: T1, PKCtheta (Homo sapiens, UniProt Q04759)
T1 construct: purchased Reaction Biology Corp
Procedure, shortened: (§1)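 Radiometric kinase assay with P81 filter capture; each kinase was added to fresh substrate plus cofactors in reaction buffer and incubated 2 h at room temperature. Unreacted phosphate was washed off with 0.1% phosphoric acid before detection; percent inhibition is relative to DMSO control, averaged over replicates.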

MST1/STK4 = target: T2, MST1/STK4 (Homo sapiens, UniProt Q13043)
T2 construct: purchased Reaction Biology Corp
T2 sequence (Q13043 1-487): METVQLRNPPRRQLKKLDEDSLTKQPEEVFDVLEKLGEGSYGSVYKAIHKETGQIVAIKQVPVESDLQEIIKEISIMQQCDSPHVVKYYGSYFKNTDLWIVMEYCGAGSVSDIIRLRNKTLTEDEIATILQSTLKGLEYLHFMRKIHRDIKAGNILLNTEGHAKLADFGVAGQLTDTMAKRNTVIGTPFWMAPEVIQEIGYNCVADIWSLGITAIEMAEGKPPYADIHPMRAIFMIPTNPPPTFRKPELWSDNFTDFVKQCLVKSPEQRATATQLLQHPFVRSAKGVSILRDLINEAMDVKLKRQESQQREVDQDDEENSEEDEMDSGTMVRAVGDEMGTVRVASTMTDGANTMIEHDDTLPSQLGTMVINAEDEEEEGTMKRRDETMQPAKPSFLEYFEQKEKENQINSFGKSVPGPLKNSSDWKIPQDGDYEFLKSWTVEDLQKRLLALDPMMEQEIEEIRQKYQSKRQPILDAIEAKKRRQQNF
Procedure, shortened: as §1

VRK2 = target: T3, VRK2 (Homo sapiens, UniProt Q86Y07)
T3 construct: purchased Reaction Biology Corp
T3 sequence (Q86Y07 whole entry): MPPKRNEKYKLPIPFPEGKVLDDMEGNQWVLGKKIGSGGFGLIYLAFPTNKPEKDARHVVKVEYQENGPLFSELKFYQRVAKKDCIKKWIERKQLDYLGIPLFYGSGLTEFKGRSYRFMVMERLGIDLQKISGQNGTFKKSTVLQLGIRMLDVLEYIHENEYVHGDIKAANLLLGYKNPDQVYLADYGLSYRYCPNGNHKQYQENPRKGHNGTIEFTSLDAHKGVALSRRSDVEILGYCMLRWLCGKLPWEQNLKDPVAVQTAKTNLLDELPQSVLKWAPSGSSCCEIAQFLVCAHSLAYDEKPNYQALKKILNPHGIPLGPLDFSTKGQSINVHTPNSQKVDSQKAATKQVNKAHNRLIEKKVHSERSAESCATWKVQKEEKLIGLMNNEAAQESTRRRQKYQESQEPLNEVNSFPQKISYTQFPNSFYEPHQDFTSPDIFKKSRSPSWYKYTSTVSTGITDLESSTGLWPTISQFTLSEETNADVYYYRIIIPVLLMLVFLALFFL
Procedure, shortened: as §1

PAK1 = target: T4, PAK1 (Homo sapiens, UniProt Q13153)
T4 construct: purchased Reaction Biology Corp
T4 sequence (Q13153 whole entry): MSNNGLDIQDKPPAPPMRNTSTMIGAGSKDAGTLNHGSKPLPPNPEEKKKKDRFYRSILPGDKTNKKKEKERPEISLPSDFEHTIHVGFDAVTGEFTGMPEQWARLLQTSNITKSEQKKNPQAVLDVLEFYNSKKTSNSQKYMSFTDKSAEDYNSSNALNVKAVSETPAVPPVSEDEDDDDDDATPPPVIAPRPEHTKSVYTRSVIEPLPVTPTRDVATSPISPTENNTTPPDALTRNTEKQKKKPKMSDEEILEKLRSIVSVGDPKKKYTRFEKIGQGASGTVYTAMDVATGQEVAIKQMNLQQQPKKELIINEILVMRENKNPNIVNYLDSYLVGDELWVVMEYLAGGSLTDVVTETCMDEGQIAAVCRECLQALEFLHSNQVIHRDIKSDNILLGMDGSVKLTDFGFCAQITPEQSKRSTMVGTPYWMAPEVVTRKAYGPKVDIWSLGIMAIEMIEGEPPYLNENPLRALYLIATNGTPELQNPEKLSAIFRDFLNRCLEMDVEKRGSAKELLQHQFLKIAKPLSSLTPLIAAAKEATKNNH
Procedure, shortened: as §1

NEK1 = target: T5, NEK1 (Homo sapiens, UniProt Q96PY6)
T5 construct: purchased Reaction Biology Corp
T5 sequence (Q96PY6 1-1258): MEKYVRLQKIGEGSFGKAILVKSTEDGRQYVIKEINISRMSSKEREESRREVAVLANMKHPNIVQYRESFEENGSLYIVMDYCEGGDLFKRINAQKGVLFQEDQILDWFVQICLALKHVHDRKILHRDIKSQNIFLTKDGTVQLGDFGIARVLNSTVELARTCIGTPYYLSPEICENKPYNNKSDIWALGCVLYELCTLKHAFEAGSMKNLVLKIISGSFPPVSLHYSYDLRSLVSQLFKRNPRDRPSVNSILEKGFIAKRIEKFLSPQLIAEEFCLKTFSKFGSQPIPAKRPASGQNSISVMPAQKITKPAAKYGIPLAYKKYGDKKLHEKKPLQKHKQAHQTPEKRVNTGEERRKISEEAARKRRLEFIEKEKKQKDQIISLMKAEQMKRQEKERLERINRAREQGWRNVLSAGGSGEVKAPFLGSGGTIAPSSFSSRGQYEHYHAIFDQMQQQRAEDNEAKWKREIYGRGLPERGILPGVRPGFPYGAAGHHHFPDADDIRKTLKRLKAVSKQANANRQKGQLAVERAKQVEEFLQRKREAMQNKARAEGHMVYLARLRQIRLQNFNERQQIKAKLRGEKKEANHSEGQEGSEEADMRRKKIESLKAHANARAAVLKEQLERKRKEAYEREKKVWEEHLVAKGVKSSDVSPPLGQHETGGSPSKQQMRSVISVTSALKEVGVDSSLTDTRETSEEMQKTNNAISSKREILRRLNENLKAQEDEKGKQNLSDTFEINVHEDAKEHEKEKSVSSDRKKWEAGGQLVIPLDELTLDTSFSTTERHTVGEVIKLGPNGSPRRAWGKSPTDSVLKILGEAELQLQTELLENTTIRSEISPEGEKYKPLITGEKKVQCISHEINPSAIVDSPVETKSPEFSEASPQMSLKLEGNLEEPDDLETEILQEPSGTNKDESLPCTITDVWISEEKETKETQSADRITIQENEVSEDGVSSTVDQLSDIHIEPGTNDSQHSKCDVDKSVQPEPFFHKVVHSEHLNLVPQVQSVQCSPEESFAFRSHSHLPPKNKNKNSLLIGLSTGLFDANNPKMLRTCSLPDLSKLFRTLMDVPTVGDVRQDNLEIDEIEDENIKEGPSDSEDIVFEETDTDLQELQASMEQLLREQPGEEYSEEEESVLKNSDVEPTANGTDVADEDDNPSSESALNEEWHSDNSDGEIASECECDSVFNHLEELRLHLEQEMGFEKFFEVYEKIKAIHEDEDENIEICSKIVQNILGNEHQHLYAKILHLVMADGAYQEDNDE
Procedure, shortened: as §1

[1] = read-out: % Enzyme Activity (relative to DMSO controls) Run 1
[2] = read-out: % Enzyme Activity (relative to DMSO controls) Run 2

T1 sequence (Q04759 whole entry): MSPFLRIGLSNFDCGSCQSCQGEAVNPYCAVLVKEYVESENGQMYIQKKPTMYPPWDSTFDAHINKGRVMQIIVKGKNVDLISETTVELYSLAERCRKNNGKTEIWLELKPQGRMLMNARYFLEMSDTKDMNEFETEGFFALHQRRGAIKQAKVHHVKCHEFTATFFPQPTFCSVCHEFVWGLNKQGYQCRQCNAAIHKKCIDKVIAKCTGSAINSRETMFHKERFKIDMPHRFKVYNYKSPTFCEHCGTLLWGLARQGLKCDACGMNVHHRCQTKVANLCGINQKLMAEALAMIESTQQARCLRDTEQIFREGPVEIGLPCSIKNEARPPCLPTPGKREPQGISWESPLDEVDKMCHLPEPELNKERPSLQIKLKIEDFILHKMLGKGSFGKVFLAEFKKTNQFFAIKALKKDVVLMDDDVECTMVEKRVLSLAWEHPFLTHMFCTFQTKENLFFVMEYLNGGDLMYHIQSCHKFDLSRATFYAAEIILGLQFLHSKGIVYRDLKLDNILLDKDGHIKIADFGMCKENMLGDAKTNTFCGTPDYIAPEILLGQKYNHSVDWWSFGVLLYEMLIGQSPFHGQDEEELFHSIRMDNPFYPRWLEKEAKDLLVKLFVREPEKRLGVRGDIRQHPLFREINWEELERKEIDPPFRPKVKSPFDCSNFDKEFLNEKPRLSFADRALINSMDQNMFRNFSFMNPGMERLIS

C=CC(=O)Nc1cccc(Nc2nc(Nc3ccc(OCCOC)c(F)c3)ncc2F)c1 [Compound 2] showed an inhibition at 3 µM (PKCtheta) of 16.1%, a remaining activity at 3 µM (PKCtheta; [1]) of 83.7% and a remaining activity at 3 µM (PKCtheta; [2]) of 84.1%. For the same molecule, the inhibition at 3 µM (MST1/STK4) was 30.6%, the remaining activity at 3 µM (MST1/STK4; [1]) was 70.2% and the remaining activity at 3 µM (MST1/STK4; [2]) was 68.7%. For the same molecule, the inhibition at 3 µM (VRK2) was 5.06%, the remaining activity at 3 µM (VRK2; [1]) was 94% and the remaining activity at 3 µM (VRK2; [2]) was 95.9%. For the same molecule, the inhibition at 3 µM (PAK1) was 2.58%, the remaining activity at 3 µM (PAK1; [1]) was 96.3% and the remaining activity at 3 µM (PAK1; [2]) was 98.6%. It also gave an inhibition at 3 µM (NEK1) of 46.6%, a remaining activity at 3 µM (NEK1; [1]) of 52.7% and a remaining activity at 3 µM (NEK1; [2]) of 54%.
